Patent US20090221664A1, “PHARMACEUTICAL COMPOSITIONS OF MUSCARINIC RECEPTOR ANTAGONISTS” (priority 2005, published 2009)

Tested on: carbachol precontracted guinea-pig isolated trachea
Test: In-vitro functional assay: relaxation of carbachol precontracted guinea-pig isolated trachea by PDE-IV inhibitors with or without MRA preincubation
Conditions: for Potentiation of relaxant activity by preincubation with C No. 66: C No. 66 at 1 nM before contraction with carbachol
Description: Guinea Pigs (400-600 gm) were procured and trachea was removed under anesthesia (sodium pentobarbital, 300 mg/kg i.p) and immediately kept in ice-cold Krebs Henseleit buffer. Indomethacin (10 uM) was present throughout the KH buffer to prevent the formation of bronchoactive prostanoids.
The tissue of adherent fascia was removed and cut into strips of equal size (with approx. 4-5 tracheal rings in each strip). The epithelium was removed by careful rubbing, minimizing damage to the smooth muscle. […] Opposite ends of the cut rings were tied with the help of a thread. The tissue was mounted in isolated tissue baths containing 10 ml Krebs Henseleit buffer maintained at 37° C. and bubbled with carbogen, at a basal tension of 1 gm. The buffer was changed 4-5 times for about an hour. Equilibration of the tissue was done for 1 hr for stabilization. After 1 hr, the tissue was challenged with 1 μM carbachol. This was repeated after every 2-3 washes till two similar consecutive responses were obtained. At the end of stabilization, the tissues were incubated with suboptimal dose of MRA/Vehicle for 20 minutes prior to contraction of the tissues with 1 μM carbachol. The relaxant activity of the PDE-IV inhibitor [10^−9M to 10^−4 M] on the stabilized developed tension/response was subsequently assessed. The contractile response of tissues was recorded either on Powerlab data acquisition system or on Grass polygraph (Model 7). The relaxation was expressed as percentage of maximum carbachol response and EC25 was calculated as the concentration producing 25% of the maximum relaxation to 1 μM carbachol. The percent relaxation between the treated and control tissues were compared using non-parametric unpaired t-test. A p value of <0.05 is considered to be statistically significant.

[1] = PDE-IV inhibitor alone, concentration producing 25% of the maximum relaxation to 1 μM carbachol
[2] = relaxation by the PDE-IV inhibitor in the presence of C No. 66 (1 nM preincubation), 1 μM carbachol

COc1ccc(C2=NO[C@]3(CCOC3)C2)cc1OC1CCCC1 [Compound No. 124aa, (S)-3-[3-(cyclopentyloxy)-4-methoxyphenyl]-1,7-dioxa-2-azaspiro[4.4]non-2-ene]
Potentiation of relaxant activity by preincubation with C No. 66: potentiated | - Log[EC25] [1]: 4.40 | EC25 [1]: 41.8 µM | - Log[EC25] [2]: 5.53

O=C(Nc1c(Cl)cncc1Cl)c1ccc(OC(F)F)c(OCC2CC2)c1 [Roflumilast]
Potentiation of relaxant activity by preincubation with C No. 66: potentiated | - Log[EC25] [1]: 4.46 | EC25 [1]: 44.2 µM | - Log[EC25] [2]: 6.25

COc1ccc(C2CNC(=O)C2)cc1OC1CCCC1 (centres unmarked) [Rolipram]
Potentiation of relaxant activity by preincubation with C No. 66: no significant potentiation | - Log[EC25] [1]: 5.25 | EC25 [1]: 7.6 µM
